From patent US20230220021A1, “CYCLIC PEPTIDE INHIBITORS OF PSD-95 AND USES THEREOF” (University of Copenhagen, priority 2020, published 2023)
Where a SMILES comes first, the peptide text is derived from it. [ ]: non-standard residue; d: D form.

target: T1, PSD-95-PDZ2 (Homo sapiens, UniProt P78352); assay: Fluorescence polarization (FP) competition assay against cyclic nNOS TAMRA probe; assay type: binding; details: FP competition, cyclic nNOS TAMRA probe; mean of triplicates; N.B. = not binding; read-out: Ki
T1 construct: 7xHis (N); made in house; host or cells: Escherichia coli B21 pLys (for the mutants, 'as previously described')
T1 sequence (P78352 160-246 limits assumed): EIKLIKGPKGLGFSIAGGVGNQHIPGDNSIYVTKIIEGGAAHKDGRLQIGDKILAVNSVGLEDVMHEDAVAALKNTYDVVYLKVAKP
Experimental: Fluorescence polarization (FP). FP assays were performed in a 384-well plate format. Fluorescence polarization was measured using a Safire 2 plate reader. The instrument Z-factor was optimized for each assay. The G-factor was calibrated to an initial milli polarization value of 20. The wavelength for the cyclic nNOS β-hairpin TAMRA probe was: ex: 530 nm and em: 580 nm. Every measurement was performed in NaPI 50 mM, 50 mM NaCl and 1% BSA at pH 7.2, 25° C. […] The curves were done in triplicates. Then, the polarization was fitted into a one-site binding model using Prism software 8.0 (GraphPad), from which the Kd can be measured. […] The mili polarization (mP) values were plotted as a function of peptide concentration and fitted to a sigmoidal dose-response curve using Prism software 8.0 (GraphPad). The Ki values were calculated according to Nikolovska-Coleska Z. et al.^40-41

SMILES	Ki [µM]
CC[C@H](C)[C@@H]1NC(=O)[C@H]([C@@H](C)O)NC(=O)[C@H](CCCCN)NC(=O)[C@@H]2CCCN2C(=O)[C@H]([C@@H](C)O)NC(=O)CNC(=O)[C@H](CC(=O)O)NC(=O)CNC(=O)[C@H]([C@@H](C)O)NC(=O)[C@H](Cc2ccccc2)NC(=O)[C@H](CCC(=O)O)NC(=O)[C@H]([C@@H](C)O)NC(=O)[C@H](CCC(=O)O)NC(=O)[C@H](CC(C)C)NC(=O)[C@H](Cc2c[nH]cn2)NC(=O)[C@H]([C@@H](C)O)NC(=O)[C@H](CCC(N)=O)NC(=O)CNC(=O)[C@H]2CCCN2C(=O)[C@H](CCC(N)=O)NC(=O)[C@H]([C@@H](C)O)NC(=O)[C@H](C(C)C)NC(=O)[C@H](CCCNC(=N)N)NC1=O [compound 53] (cyclo(THLETEFTGDGTPKTIRVTQ[dP]GQ))	11.5
CC[C@H](C)[C@@H]1NC(=O)[C@H]([C@@H](C)O)NC(=O)[C@H](CCCCN)NC(=O)[C@@H]2CCCN2C(=O)CNC(=O)[C@H](CC(=O)O)NC(=O)CNC(=O)[C@H]([C@@H](C)O)NC(=O)[C@H](Cc2ccccc2)NC(=O)[C@H]([C@@H](C)O)NC(=O)[C@H]([C@@H](C)O)NC(=O)[C@H](CCC(=O)O)NC(=O)[C@H](CC(C)C)NC(=O)[C@H](Cc2c[nH]cn2)NC(=O)[C@H]([C@@H](C)O)NC(=O)[C@H](CCC(N)=O)NC(=O)CNC(=O)[C@H]2CCCN2C(=O)[C@H](CCC(N)=O)NC(=O)[C@H]([C@@H](C)O)NC(=O)[C@H](C(C)C)NC(=O)[C@H](CCCNC(=N)N)NC1=O [compound 77] (cyclo(THLETTFTGDGPKTIRVTQ[dP]GQ))	1.43
CC[C@H](C)[C@@H]1NC(=O)[C@H]([C@@H](C)O)NC(=O)[C@H](CCCCN)NC(=O)[C@@H]2CCCN2C(=O)[C@H]([C@@H](C)O)NC(=O)CNC(=O)[C@H](CC(=O)O)NC(=O)CNC(=O)[C@H]([C@@H](C)O)NC(=O)[C@H](Cc2ccccc2)NC(=O)[C@H]([C@@H](C)O)NC(=O)[C@H]([C@@H](C)O)NC(=O)[C@H](CCC(=O)O)NC(=O)[C@H](CC(C)C)NC(=O)[C@H](Cc2c[nH]cn2)NC(=O)[C@H]([C@@H](C)O)N(C)C(=O)[C@H](CCC(N)=O)NC(=O)CNC(=O)[C@H]2CCCN2C(=O)[C@H](CCC(N)=O)NC(=O)[C@H]([C@@H](C)O)NC(=O)[C@H](C(C)C)NC(=O)[C@H](CCCNC(=N)N)NC1=O [compound 84]	4.8
CC[C@H](C)[C@@H]1NC(=O)[C@H]([C@@H](C)O)NC(=O)[C@H](CCCCN)NC(=O)[C@@H]2CCCN2C(=O)[C@H]([C@@H](C)O)NC(=O)CNC(=O)[C@H](CC(=O)O)NC(=O)CNC(=O)[C@H]([C@@H](C)O)NC(=O)[C@H](Cc2ccccc2)NC(=O)[C@H]([C@@H](C)O)N(C)C(=O)[C@H]([C@@H](C)O)NC(=O)[C@H](CCC(=O)O)NC(=O)[C@H](CC(C)C)NC(=O)[C@H](Cc2c[nH]cn2)NC(=O)[C@H]([C@@H](C)O)NC(=O)[C@H](CCC(N)=O)NC(=O)CNC(=O)[C@H]2CCCN2C(=O)[C@H](CCC(N)=O)NC(=O)[C@H]([C@@H](C)O)NC(=O)[C@H](C(C)C)NC(=O)[C@H](CCCNC(=N)N)NC1=O [compound 89]	1.47
CC[C@H](C)[C@@H]1NC(=O)[C@H]([C@@H](C)O)NC(=O)[C@H](CCCCN)NC(=O)[C@@H]2CCCN2C(=O)[C@H]([C@@H](C)O)NC(=O)CNC(=O)[C@H](CC(=O)O)NC(=O)CN(C)C(=O)[C@H]([C@@H](C)O)NC(=O)[C@H](Cc2ccccc2)NC(=O)[C@H]([C@@H](C)O)NC(=O)[C@H]([C@@H](C)O)NC(=O)[C@H](CCC(=O)O)NC(=O)[C@H](CC(C)C)NC(=O)[C@H](Cc2c[nH]cn2)NC(=O)[C@H]([C@@H](C)O)NC(=O)[C@H](CCC(N)=O)NC(=O)CNC(=O)[C@H]2CCCN2C(=O)[C@H](CCC(N)=O)NC(=O)[C@H]([C@@H](C)O)NC(=O)[C@H](C(C)C)NC(=O)[C@H](CCCNC(=N)N)NC1=O [compound 92]	6.19

same assay, conditions: FP inhibition constant normalized to WT value

SMILES	Relative Ki (Ki mut/Ki WT)
CC[C@H](C)[C@@H]1NC(=O)[C@H]([C@@H](C)O)NC(=O)[C@H](CCCCN)NC(=O)[C@@H]2CCCN2C(=O)[C@H]([C@@H](C)O)NC(=O)CNC(=O)[C@H](CC(=O)O)NC(=O)CNC(=O)[C@H]([C@@H](C)O)NC(=O)[C@H](Cc2ccccc2)NC(=O)[C@H]([C@@H](C)O)NC(=O)[C@H]([C@@H](C)O)NC(=O)[C@H](CCC(=O)O)NC(=O)[C@H](CC(C)C)NC(=O)[C@H](Cc2c[nH]cn2)NC(=O)[C@H]([C@@H](C)O)NC(=O)[C@H](CCC(N)=O)NC(=O)CNC(=O)[C@H]2CCCN2C(=O)[C@H](CCC(N)=O)NC(=O)[C@H](CCCNC(=N)N)NC(=O)[C@H](C(C)C)NC(=O)[C@H](CCCNC(=N)N)NC1=O [compound 44] (cyclo(THLETTFTGDGTPKTIRVRQ[dP]GQ))	1.06
CC[C@H](C)[C@@H]1NC(=O)[C@H]([C@@H](C)O)NC(=O)[C@H](CCCCN)NC(=O)[C@@H]2CCCN2C(=O)[C@H]([C@@H](C)O)NC(=O)CNC(=O)[C@H](CC(=O)O)NC(=O)CNC(=O)[C@H]([C@@H](C)O)NC(=O)[C@H](Cc2ccccc2)NC(=O)[C@H]([C@@H](C)O)NC(=O)[C@H]([C@@H](C)O)NC(=O)[C@H](CCC(=O)O)NC(=O)[C@H](CC(C)C)NC(=O)[C@H](Cc2c[nH]cn2)NC(=O)[C@H]([C@@H](C)O)NC(=O)[C@H](CCC(N)=O)NC(=O)CNC(=O)[C@H]2CCCN2C(=O)[C@H](CCC(N)=O)NC(=O)[C@H]([C@@H](C)O)NC(=O)[C@H](Cc2ccccc2)NC(=O)[C@H](CCCNC(=N)N)NC1=O [compound 46] (cyclo(THLETTFTGDGTPKTIRFTQ[dP]GQ))	0.89
CC[C@H](C)[C@@H]1NC(=O)[C@H]([C@@H](C)O)NC(=O)[C@H](CCCCN)NC(=O)[C@@H]2CCCN2C(=O)[C@H]([C@@H](C)O)NC(=O)CNC(=O)[C@H](CC(=O)O)NC(=O)CNC(=O)[C@H]([C@@H](C)O)NC(=O)[C@H](Cc2ccccc2)NC(=O)[C@H]([C@@H](C)O)NC(=O)[C@H]([C@@H](C)O)NC(=O)[C@H](CCC(=O)O)NC(=O)[C@H](CC(C)C)NC(=O)[C@H](Cc2c[nH]cn2)NC(=O)[C@H]([C@@H](C)O)NC(=O)[C@H](CCC(N)=O)NC(=O)CNC(=O)[C@H]2CCCN2C(=O)[C@H](CCC(N)=O)NC(=O)[C@H]([C@@H](C)O)NC(=O)[C@H](Cc2ccc(O)cc2)NC(=O)[C@H](CCCNC(=N)N)NC1=O [compound 47] (cyclo(THLETTFTGDGTPKTIRYTQ[dP]GQ))	0.85
CC[C@H](C)[C@@H]1NC(=O)[C@H]([C@@H](C)O)NC(=O)[C@H](CCCCN)NC(=O)[C@@H]2CCCN2C(=O)[C@H]([C@@H](C)O)NC(=O)CNC(=O)[C@H](CC(=O)O)NC(=O)CNC(=O)[C@H]([C@@H](C)O)NC(=O)[C@H](Cc2ccccc2)NC(=O)[C@H]([C@@H](C)O)NC(=O)[C@H]([C@@H](C)O)NC(=O)[C@H](CCC(=O)O)NC(=O)[C@H](CC(C)C)NC(=O)[C@H](Cc2c[nH]cn2)NC(=O)[C@H]([C@@H](C)O)NC(=O)[C@H](CCC(N)=O)NC(=O)CNC(=O)[C@H]2CCCN2C(=O)[C@H](CCC(N)=O)NC(=O)[C@H](Cc2ccccc2)NC(=O)[C@H](C(C)C)NC(=O)[C@H](CCCNC(=N)N)NC1=O [compound 48] (cyclo(THLETTFTGDGTPKTIRVFQ[dP]GQ))	1.05
CC[C@H](C)[C@@H]1NC(=O)[C@H]([C@@H](C)O)NC(=O)[C@H](CCCCN)NC(=O)[C@@H]2CCCN2C(=O)[C@H]([C@@H](C)O)NC(=O)CNC(=O)[C@H](CC(=O)O)NC(=O)CNC(=O)[C@H]([C@@H](C)O)NC(=O)[C@H](Cc2ccccc2)NC(=O)[C@H]([C@@H](C)O)NC(=O)[C@H]([C@@H](C)O)NC(=O)[C@H](CCC(=O)O)NC(=O)[C@H](CC(C)C)NC(=O)[C@H](Cc2c[nH]cn2)NC(=O)[C@H]([C@@H](C)O)NC(=O)[C@H](CCC(N)=O)NC(=O)CNC(=O)[C@H]2CCCN2C(=O)[C@H](CCC(N)=O)NC(=O)[C@H](Cc2ccc(O)cc2)NC(=O)[C@H](C(C)C)NC(=O)[C@H](CCCNC(=N)N)NC1=O [compound 49] (cyclo(THLETTFTGDGTPKTIRVYQ[dP]GQ))	1.25
CC[C@H](C)[C@@H]1NC(=O)[C@H](CO)NC(=O)[C@H](CCCCN)NC(=O)[C@@H]2CCCN2C(=O)[C@H]([C@@H](C)O)NC(=O)CNC(=O)[C@H](CC(=O)O)NC(=O)CNC(=O)[C@H]([C@@H](C)O)NC(=O)[C@H](Cc2ccccc2)NC(=O)[C@H]([C@@H](C)O)NC(=O)[C@H]([C@@H](C)O)NC(=O)[C@H](CCC(=O)O)NC(=O)[C@H](CC(C)C)NC(=O)[C@H](Cc2c[nH]cn2)NC(=O)[C@H]([C@@H](C)O)NC(=O)[C@H](CCC(N)=O)NC(=O)CNC(=O)[C@H]2CCCN2C(=O)[C@H](CCC(N)=O)NC(=O)[C@H]([C@@H](C)O)NC(=O)[C@H](C(C)C)NC(=O)[C@H](CCCNC(=N)N)NC1=O [compound 50] (cyclo(THLETTFTGDGTPKSIRVTQ[dP]GQ))	4.79
CC[C@H](C)[C@@H]1NC(=O)[C@H]([C@@H](C)O)NC(=O)[C@H](CCCCN)NC(=O)[C@@H]2CCCN2C(=O)[C@H]([C@@H](C)O)NC(=O)CNC(=O)[C@H](CC(=O)O)NC(=O)CNC(=O)[C@H]([C@@H](C)O)NC(=O)[C@H](Cc2ccccc2)NC(=O)[C@H]([C@@H](C)O)NC(=O)[C@H](CO)NC(=O)[C@H](CCC(=O)O)NC(=O)[C@H](CC(C)C)NC(=O)[C@H](Cc2c[nH]cn2)NC(=O)[C@H]([C@@H](C)O)NC(=O)[C@H](CCC(N)=O)NC(=O)CNC(=O)[C@H]2CCCN2C(=O)[C@H](CCC(N)=O)NC(=O)[C@H]([C@@H](C)O)NC(=O)[C@H](C(C)C)NC(=O)[C@H](CCCNC(=N)N)NC1=O [compound 52] (cyclo(THLESTFTGDGTPKTIRVTQ[dP]GQ))	2.51
CC[C@H](C)[C@@H]1NC(=O)[C@H]([C@@H](C)O)NC(=O)[C@H](CCCCN)NC(=O)[C@@H]2CCCN2C(=O)[C@H]([C@@H](C)O)NC(=O)CNC(=O)[C@H](CC(=O)O)NC(=O)CNC(=O)[C@H]([C@@H](C)O)NC(=O)[C@H](Cc2ccccc2)NC(=O)[C@H](CCC(=O)O)NC(=O)[C@H]([C@@H](C)O)NC(=O)[C@H](CCC(=O)O)NC(=O)[C@H](CC(C)C)NC(=O)[C@H](Cc2c[nH]cn2)NC(=O)[C@H]([C@@H](C)O)NC(=O)[C@H](CCC(N)=O)NC(=O)CNC(=O)[C@H]2CCCN2C(=O)[C@H](CCC(N)=O)NC(=O)[C@H]([C@@H](C)O)NC(=O)[C@H](C(C)C)NC(=O)[C@H](CCCNC(=N)N)NC1=O [compound 53] (cyclo(THLETEFTGDGTPKTIRVTQ[dP]GQ))	0.34
CC[C@H](C)[C@@H]1NC(=O)[C@H]([C@@H](C)O)NC(=O)[C@H](CCCCN)NC(=O)[C@@H]2CCCN2C(=O)[C@H]([C@@H](C)O)NC(=O)CNC(=O)[C@H](CC(=O)O)NC(=O)CNC(=O)[C@H]([C@@H](C)O)NC(=O)[C@H](Cc2ccccc2)NC(=O)[C@H]([C@@H](C)O)NC(=O)[C@H]([C@@H](C)O)NC(=O)[C@H](CCC(=O)O)NC(=O)[C@H](C)NC(=O)[C@H](Cc2c[nH]cn2)NC(=O)[C@H]([C@@H](C)O)NC(=O)[C@H](CCC(N)=O)NC(=O)CNC(=O)[C@H]2CCCN2C(=O)[C@H](CCC(N)=O)NC(=O)[C@H]([C@@H](C)O)NC(=O)[C@H](C(C)C)NC(=O)[C@H](CCCNC(=N)N)NC1=O [compound 57] (cyclo(THAETTFTGDGTPKTIRVTQ[dP]GQ))	2.36
